Experiments:
RSV A2 = experiment: RSV plaque reduction assay; assay type: cell-based, RSV (RSV A2 ECACC, 0709161v); details: human respiratory syncytial virus, HepG2, 48 h, Hep-G2 cells, RSV A2, 2 days; mean of at least two experiments
Description: Compounds were subjected to RSV plaque reduction assays according to the following protocol.
Hep-G2 cells (ECACC, 85011430) were passaged in flasks and seeded in 24-well plates in DMEM containing antibiotics and supplemented with 10% FBS. During inoculation and subsequent incubation, cells were cultured in DMEM containing 2% FBS. 100 plaque forming unit/well of RSV (RSV A2 ECACC, 0709161v) was mixed with eight serial dilutions of compound. Subsequently, 100 µL of the virus/compound mixtures was added to confluent Hep-G2 cell monolayers. The cells and virus/compound mixtures were incubated at 37° C. in a humidified 5% CO2 incubator for 2 h prior to removal of the inoculum and addition of 1 mL of overlay (DMEM containing 2% FBS and 0.8% CMC) containing compound dilutions. The cells and were incubated at 37° C. in a humidified 5% CO2 incubator for 2 days.
Cells were washed with PBS before adding 75%/25% v/v EtOH/MeOH, for 3 min. Fix ative was removed and plates were washed with PBS. A pre-titrated amount of the primary antibody was added in 200 µL PBS/2% milk powder, and plates incubated for 90 min at 37° C. The plates were washed 3 times with PBS/0.05% Tween20 before addition of rabbit anti-goat horse radish peroxidase in 200 µL PBS/2% milk powder, and incubated for 1 h at 37° C. Following three wash steps with PBS/0.05% Tween20, 200 µL ready-to-use TrueBlue was added and plates were incubated at rt for 10-15 min before washing with water. After removal of water, plates were air-dried in the dark.
(§1) Plates were scanned and analysed using the Immunospot S6 Macro analyser, which is equipped with BioSpot analysis software for counting immunostained plaques (virospots). Plaque counts were used to calculate % infection relative to the mean of the plaque count in the virus control wells for RSV. […] Plaque EC50 and cell toxicity CC50 values are a mean of at least two experiments and figures are rounded to whole units.

Cell cytotoxicity CC50 = assay type: cell-based; details: human; mean of at least two experiments
Source text: as §1

CCC1CCCn2nc(-c3ccc(C)nc3)c(C(=O)N[C@H]3N=C(c4ccccc4)c4cccc(F)c4NC3=O)c2O1 (single isomer, unassigned) [Example 27-1, (5R*)-5-ethyl-N-[(3S)-9-fluoro-2-oxo-5-phenyl-2,3-dihydro-1H-1,4-benzodiazepin-3-yl]-2-(6-methylpyridin-3-yl)-5H,6H,7H,8H-pyrazolo[3,2-b][1,3]oxazepine-3-carboxamide]
EC50 (RSV A2): 295 nM | CC50 (Cell cytotoxicity CC50): > 25000 nM

O=C(N[C@H]1N=C(c2ccccc2)c2ccccc2NC1=O)c1c(-c2ccc(NC3CC3)nc2F)nn2c1OCCCC2 [Example 9, 2-[6-(Cyclopropylamino)-2-fluoropyridin-3-yl]-N-[(3S)-2-oxo-5-phenyl-1,3-dihydro-1,4-benzodiazepin-3-yl]-5,6,7,8-tetrahydropyrazolo[5,1-b][1,3]oxazepine-3-carboxamide]
EC50 (RSV A2): 24 nM | CC50 (Cell cytotoxicity CC50): > 25000 nM

CC1CCCn2nc(-c3ccc(F)cc3F)c(C(=O)N[C@H]3N=C(c4ccccc4)c4cccc(F)c4NC3=O)c2O1 (stereo partly drawn) [Example 17, 2-(2,4-Difluorophenyl)-N-[(3S)-9-fluoro-2-oxo-5-phenyl-1,3-dihydro-1,4-benzodiazepin-3-yl]-5-methyl-5,6,7,8-tetrahydropyrazolo[5,1-b][1,3]oxazepine-3-carboxamide]
EC50 (RSV A2): 27 nM | CC50 (Cell cytotoxicity CC50): > 25000 nM

CC(C)Nc1ccc(-c2nn3c(c2C(=O)N[C@H]2N=C(c4ccccc4)c4cccc(F)c4NC2=O)O[C@@H]2CC[C@H]3C2)cn1 (single isomer, unassigned) [Example 31-1, (1S*,8R*)-N-[(3S)-9-fluoro-2-oxo-5-phenyl-2,3-dihydro-1H-1,4-benzodiazepin-3-yl]-4-{6-[(propan-2-yl)amino]pyridin-3-yl}-7-oxa-2,3-diazatricyclo[6.2.1.02,6]undeca-3,5-diene-5-carboxamide]
EC50 (RSV A2): 63 nM | CC50 (Cell cytotoxicity CC50): > 25000 nM

CCC1CCCn2nc(-c3ccccc3F)c(C(=O)N[C@H]3N=C(c4ccccc4)c4ccccc4NC3=O)c2O1 (stereo partly drawn) [Example 24, 5-Ethyl-2-(2-fluorophenyl)-N-[(3S)-2-oxo-5-phenyl-1,3-dihydro-1,4-benzodiazepin-3-yl]-5,6,7,8-tetrahydropyrazolo[5,1-b][1,3]oxazepine-3-carboxamide]
EC50 (RSV A2): 100 nM | CC50 (Cell cytotoxicity CC50): > 25000 nM

CC1CCCOc2c(C(=O)NC3N=C(c4ccccc4)c4ccccc4NC3=O)c(-c3ccccc3F)nn21 (single isomer, unassigned) [Example 14-1, (8R*)-2-(2-Fluorophenyl)-8-methyl-N-(2-oxo-5-phenyl-1,3-dihydro-1,4-benzodiazepin-3-yl)-5,6,7,8-tetrahydropyrazolo[5,1-b][1,3]oxazepine-3-carboxamide]
EC50 (RSV A2): 61 nM | CC50 (Cell cytotoxicity CC50): > 25000 nM

CS(=O)(=O)c1ccc(-c2nn3c(c2C(=O)N[C@H]2N=C(c4ccccc4)c4cccc(F)c4NC2=O)OC2CCC3C2)c(F)c1 (stereo partly drawn) [Example 32, 4-(2-Fluoro-4-methylsulfonylphenyl)-N-[(3S)-9-fluoro-2-oxo-5-phenyl-1,3-dihydro-1,4-benzodiazepin-3-yl]-7-oxa-2,3-diazatricyclo[6.2.1.02,6]undeca-3,5-diene-5-carboxamide]
EC50 (RSV A2): 23 nM | CC50 (Cell cytotoxicity CC50): > 25000 nM

CC(C)Nc1ccc(-c2nn3c(c2C(=O)N[C@H]2N=C(c4ccccc4)c4cccc(F)c4NC2=O)OC(C)CCC3)c(F)n1 (single isomer, unassigned) [Example 13-1, (5R*)-N-[(3S)-9-fluoro-2-oxo-5-phenyl-1,3-dihydro-1,4-benzodiazepin-3-yl]-2-[2-fluoro-6-(propan-2-ylamino)pyridin-3-yl]-5-methyl-5,6,7,8-tetrahydropyrazolo[5,1-b][1,3]oxazepine-3-carboxamide]
EC50 (RSV A2): 26 nM | CC50 (Cell cytotoxicity CC50): > 25000 nM

O=C(NC1N=C(c2ccccc2)c2cccc(F)c2NC1=O)c1c(-c2ccccc2F)nn2c1OCC(N1CCOCC1)CC2 (stereo in doubt) [Example 29, 2-(2-Fluorophenyl)-6-morpholin-4-yl-N-[(3R)-9-fluoro-2-oxo-5-phenyl-1,3-dihydro-1,4-benzodiazepin-3-yl]-5,6,7,8-tetrahydropyrazolo[5,1-b][1,3]oxazepine-3-carboxamide]
EC50 (RSV A2): 154 nM | CC50 (Cell cytotoxicity CC50): > 25000 nM

O=C(N[C@H]1N=C(c2ccccc2)c2cccc(F)c2NC1=O)c1c(-c2ccccc2F)nn2c1O[C@@H]1CC[C@H]2C1 (single isomer, unassigned) [Example 19-1, (1S*,8R*)-N-[(3 S)-9-fluoro-2-oxo-5-phenyl-2,3-dihydro-1H-1,4-benzodiazepin-3-yl]-4-(2-fluorophenyl)-7-oxa-2,3-diazatricyclo[6.2.1.0^2,6]undeca-3,5-diene-5-carboxamide]
EC50 (RSV A2): 49 nM | CC50 (Cell cytotoxicity CC50): > 25000 nM

CCC1CCCn2nc(-c3ccccc3F)c(C(=O)N[C@H]3N=C(c4ccccc4)c4ccccc4NC3=O)c2O1 (single isomer, unassigned) [Example 24-1, (5R*)-5-ethyl-2-(2-fluorophenyl)-N-[(3S)-2-oxo-5-phenyl-2,3-dihydro-1H-1,4-benzodiazepin-3-yl]-5H,6H,7H,8H-pyrazolo[3,2-b][1,3]oxazepine-3-carboxamide]
EC50 (RSV A2): 111 nM | CC50 (Cell cytotoxicity CC50): > 25000 nM

CC(C)Nc1ccc(-c2nn3c(c2C(=O)N[C@H]2N=C(c4ccccc4)c4cccc(F)c4NC2=O)O[C@H]2CC[C@@H]3C2)cn1 (single isomer, unassigned) [Example 31-2, (1R*,8S*)-N-[(3S)-9-fluoro-2-oxo-5-phenyl-2,3-dihydro-1H-1,4-benzodiazepin-3-yl]-4-{6-[(propan-2-yl)amino]pyridin-3-yl}-7-oxa-2,3-diazatricyclo[6.2.1.02,6]undeca-3,5-diene-5-carboxamide]
EC50 (RSV A2): 94 nM | CC50 (Cell cytotoxicity CC50): > 25000 nM

CCc1ccc(-c2nn3c(c2C(=O)N[C@H]2N=C(c4ccccc4)c4cccc(F)c4NC2=O)O[C@@H]2CC[C@H]3C2)cn1 (single isomer, unassigned) [Example 30-1, (1S*,8R*)-4-(6-ethylpyridin-3-yl)-N-[(3S)-9-fluoro-2-oxo-5-phenyl-2,3-dihydro-1H-1,4-benzodiazepin-3-yl]-7-oxa-2,3-diazatricyclo[6.2.1.02,6]undeca-3,5-diene-5-carboxamide]
EC50 (RSV A2): 61 nM | CC50 (Cell cytotoxicity CC50): > 25000 nM

CCc1ccc(-c2nn3c(c2C(=O)N[C@H]2N=C(c4ccccc4)c4cccc(F)c4NC2=O)OCC(F)(F)CC3)cn1 [Example 22, 2-(6-Ethylpyridin-3-yl)-6,6-difluoro-N-[(3S)-9-fluoro-2-oxo-5-phenyl-2,3-dihydro-1H-1,4-benzodiazepin-3-yl]-5H,6H,7H,8H-pyrazolo[3,2-b][1,3]oxazepine-3-carboxamide]
EC50 (RSV A2): 103 nM | CC50 (Cell cytotoxicity CC50): > 25000 nM

CC1CCCn2nc(-c3ccc(F)cc3F)c(C(=O)N[C@H]3N=C(c4ccccc4)c4ccccc4NC3=O)c2O1 (single isomer, unassigned) [Example 16-1, (5R*)-2-(2,4-difluorophenyl)-5-methyl-N-[(3S)-2-oxo-5-phenyl-1,3-dihydro-1,4-benzodiazepin-3-yl]-5,6,7,8-tetrahydropyrazolo[5,1-b][1,3]oxazepine-3-carboxamide]
EC50 (RSV A2): 28 nM | CC50 (Cell cytotoxicity CC50): > 25000 nM

CC1CCCn2nc(-c3ccc(F)cc3F)c(C(=O)N[C@H]3N=C(c4ccccc4)c4cccc(F)c4NC3=O)c2O1 (single isomer, unassigned) [Example 17-1, (5R*)-2-(2,4-difluorophenyl)-N-[(3 S)-9-fluoro-2-oxo-5-phenyl-1,3-dihydro-1,4-benzodiazepin-3-yl]-5-methyl-5,6,7,8-tetrahydropyrazolo[5,1-b][1,3]oxazepine-3-carboxamide]
EC50 (RSV A2): 19 nM | CC50 (Cell cytotoxicity CC50): > 25000 nM

Cc1cncc(-c2nn3c(c2C(=O)N[C@H]2N=C(c4ccccc4)c4ccccc4NC2=O)OCCCC3)c1 [Example 3, 2-(5-Methylpyridin-3-yl)-N-[(3S)-2-oxo-5-phenyl-1,3-dihydro-1,4-benzodiazepin-3-yl]-5,6,7,8-tetrahydropyrazolo[5,1-b][1,3]oxazepine-3-carboxamide]
EC50 (RSV A2): 256 nM | CC50 (Cell cytotoxicity CC50): > 25000 nM

CC1CCCOc2c(C(=O)N[C@H]3N=C(c4ccccc4)c4ccccc4NC3=O)c(-c3ccccc3F)nn21 (stereo partly drawn) [Example 14, 2-(2-Fluorophenyl)-8-methyl-N-[(3S)-2-oxo-5-phenyl-1,3-dihydro-1,4-benzodiazepin-3-yl]-5,6,7,8-tetrahydropyrazolo[5,1-b][1,3]oxazepine-3-carboxamide]
EC50 (RSV A2): 67 nM | CC50 (Cell cytotoxicity CC50): > 25000 nM

CCC1CCCn2nc(-c3ccccc3F)c(C(=O)N[C@H]3N=C(c4ccccc4)c4cccc(F)c4NC3=O)c2O1 (some centres unmarked) [Example 25, 5-Ethyl-N-[(3 S)-9-fluoro-2-oxo-5-phenyl-1,3-dihydro-1,4-benzodiazepin-3-yl]-2-(2-fluorophenyl)-5,6,7,8-tetrahydropyrazolo[5,1-b][1,3]oxazepine-3-carboxamide]
EC50 (RSV A2): 83 nM | CC50 (Cell cytotoxicity CC50): > 25000 nM

From patent US20230365585A1, “BENZODIAZEPINE DERIVATIVES USEFUL IN TREATING A RESPIRATORY SYNCYTIAL VIRUS INFECTION” (priority 2020, published 2023)
